Legend:
[1] = tested on: CDCP1 cleavage in MDA-MB-231 cells; assay: Cleavage of cellular CDCP1 in MDA-MB-231 supplemented with exogenous recombinant human matriptase; assay type: cell-based; details: MDA-MB-231 + 10 nM recombinant human matriptase, 24 h, different concentrations
Method: Figure 6 The effect of kempopeptins B and C (2 and 3) on CDCP1 cleavage in MDA-MB-231. (A) MDA-MB-231 cells were treated for 72 h with different concentrations of the test compounds. Following 72 h, the lysates were collected and analyzed by Western blot. (B) MDA-MB-231 cells were treated at different time points with 100 µM of kempopeptin C (3). Following 6 h, 12 h and 24 h, the lysates were collected and analyzed by Western blot. Dexamethasone (Dex) was used as a positive control. (C) MDA-MB-231 cells treated for 24 h with different concentrations of 3 in the presence of 10 nM recombinant human matriptase. Cell lysates were harvested and analyzed by Western blot. (D) Densitometric analysis of the full-length, LMW of CDCP1 and actin bands in (C).
In this experiment, we aimed to investigate the ability of 3 to inhibit cell-expressed CDCP1 rather than the purified recombinant protein in vitro. In contrast to the well-controlled in vitro assay, several factors might influence the extracellular matriptase activity in the cell-based assay; for example, the occurrence of additional secreted cellular factors, differences in pH, in addition to the unknown enzyme:substrate:inhibitor ratio. […] Additionally, matriptase is one of at least two other proteases known to process CDCP1, where plasmin is the main protease cleaving CDCP1 in MDA-MB-231 cells. […]

[2] = biological target: T1, recombinant human matriptase (Homo sapiens, UniProt Q9Y5Y6); assay: In vitro cleavage of desmoglein-2 by matriptase (SDS-PAGE, silver stain, densitometry); assay type: biochemical; details: 3 h; for Inhibition of in vitro cleavage of Dsg-2 by matriptase: enzyme to substrate ratio 1:5, pH 9.0, 37 °C, 10‒0.01 µM inhibitor, qualitative
T1 construct: purchased R&D Systems 3946-SE-010
T1 sequence (Q9Y5Y6 615-855 limits assumed): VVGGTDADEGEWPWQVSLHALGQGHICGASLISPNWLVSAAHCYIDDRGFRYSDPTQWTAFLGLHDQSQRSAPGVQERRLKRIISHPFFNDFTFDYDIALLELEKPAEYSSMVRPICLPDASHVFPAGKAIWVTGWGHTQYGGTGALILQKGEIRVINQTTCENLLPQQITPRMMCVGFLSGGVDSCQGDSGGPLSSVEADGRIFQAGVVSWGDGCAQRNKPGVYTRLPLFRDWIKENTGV
Method: Figure 4 The effect of kempopeptin C (3) on the in vitro cleavage of CDCP1 and desmoglein-2 (Dsg-2) by matriptase. (A,B) Incubation of recombinant human CDCP1 with recombinant human matriptase (enzyme to substrate ratio 1:5) in 50 mM Tris, 50 mM NaCl, 0.01% Tween 20 (pH 9.0) at 37 °C for 30 min and 2 h in the presence and absence of different concentrations (10‒0.01 µM) of kempopeptin C (3). (C) Incubation of recombinant human Dsg-2 with recombinant human matriptase (enzyme to substrate ratio 1:5) in 50 mM Tris, 50 mM NaCl, 0.01% tween 20 (pH 9.0) at 37 °C for 3 h in the presence and absence of different concentrations (10‒0.01 µM) of kempopeptin C (3). Fragments were separated on SDS-PAGE under reducing conditions and silver stained. (D) Densitometric analysis of Dsg-2 bands in the SDS-PAGE in […].
Among the earliest events in cancer metastasis is the loss of intracellular adhesion. Desmosomes are adhesive molecules localized at the cell membrane acting as an anchor for intermediate filaments in addition to being adhesive intracellular junctions. Desmogleins (Dsg 1‒4) and desmocollins (Dsc 1‒3), comprising the core of the desmosomal adhesive complex, are glycoproteins and members of the cadherin superfamily of proteins. Desmogleins have been reported to be aberrantly expressed in several cancers and substrates of several proteases. Dsg-2 is known to be a substrate of kallikrein 7 (KLK7) and harbors a cleavage site for matriptase. We therefore investigated the cleavage of Dsg-2 by matriptase in vitro and the ability of kempopeptin C (3) to inhibit or reduce this cleavage. Matriptase and Dsg-2 were incubated for 3 h at 37 °C in assay buffer (final molar ratio 1:5) in the presence of different concentrations of kempopeptin C (3) or solvent control (Figure 4C). The resulting protein fragments were separated by SDS-PAGE and subjected to silver staining. […] The incomplete cleavage of Dsg-2 by matriptase might be due to the relative affinity of kempopeptin C (3) to matriptase, such that it can block the cleavage of some low affinity bands, but have no effects on others. […]

CCCC(=O)NC(C(=O)NC1C(=O)NC(CCCCN)C(=O)NC2CCC(O)N(C2=O)C(C(C)CC)C(=O)N(C)C(Cc2ccc(OC)c(Cl)c2)C(=O)NC(C(C)C)C(=O)OC1C)C(C)C (centres unmarked) [Kempopeptin C, kempopeptin C]
Reduction of cleavage of cellular CDCP1 in presence of exogenous matriptase [1]: reduced the cleavage of CDCP1
Reduction of cleavage of cellular CDCP1 in presence of exogenous matriptase ([1]; listed as Kempopeptin C (3)): slight dose-dependent reduction in the cleavage of the full-length form
Densitometry of full-length Dsg-2 (Band 1) ([2]; 37 °C, compared to lower concentrations of the inhibitor): higher intensity of the full-length Dsg-2 (Band 1) in the presence of 10, 1 and 0.1 µM
Inhibition of in vitro cleavage of Dsg-2 by matriptase [2]: inhibit the cleavage
Inhibition of in vitro cleavage of Dsg-2 by matriptase ([2]; listed as Kempopeptin C (3)): slight dose-dependent reduction in the cleavage of Dsg-2

From paper PMC5618429, “Kempopeptin C, a Novel Marine-Derived Serine Protease Inhibitor Targeting Invasive Breast Cancer” (Marine Drugs, 2017)
